Assay results from ChEMBL document CHEMBL4219207, “Reversible, orally available ADP receptor (P2Y12) antagonists Part I: Hit to lead process” (Bioorg Med Chem Lett, 2018).

Key:
[1] = molecular target: T1, P2Y purinoceptor 12 (Homo sapiens, UniProt Q9H244); experiment: Displacement of [3H]2MeSADP from P2Y12 receptor in human platelets after 60 mins by TopCount scintillation counting method
[2] = Cmax in Sprague-Dawley rat at 2 mg/kg, po via gavage; format: ADME, organism-based; design: dose 2 mg/kg, route oral; details: in vivo
[3] = Plasma concentration in Sprague-Dawley rat at 2 mg/kg, po via gavage after 1 hr using sample obtained from jugular vein; format: ADME, organism-based
[4] = molecular target: T1, P2Y purinoceptor 12; experiment: Competitive/reversible antagonist activity at P2Y12 receptor in platelets (unknown origin) assessed as inhibition of ADP-induced platelet aggregation; format: functional
[5] = Metabolic stability in human liver microsomes assessed as parent compound remaining at 3000 nM; format: ADME, microsome; details: read-out: Stability
[6] = Metabolic stability in rat liver microsomes assessed as parent compound remaining at 3000 nM; format: ADME, microsome; details: read-out: Stability
[7] = Metabolic stability in dog liver microsomes assessed as parent compound remaining at 3000 nM; format: ADME, Canis lupus familiaris, microsome; details: read-out: Stability
[8] = Plasma concentration in Sprague-Dawley rat at 2 mg/kg, po via gavage after 3 hrs using sample obtained from jugular vein; format: ADME, organism-based
[9] = Plasma concentration in Sprague-Dawley rat at 2 mg/kg, po via gavage after 1 hr using sample obtained from portal vein; format: ADME, organism-based
[10] = Plasma concentration in Sprague-Dawley rat at 2 mg/kg, po via gavage after 3 hrs using sample obtained from portal vein; format: ADME, organism-based
[11] = Half life in Sprague-Dawley rat at 2 mg/kg, po via gavage; format: ADME, organism-based; details: in vivo
[12] = Permeability in human Caco2 cells; format: ADME, cell-based; details: Caco-2, read-out: permeability
[13] = Oral bioavailability in Sprague-Dawley rat at 2 mg/kg via gavage; format: ADME, organism-based; details: in vivo

T1 sequence (Q9H244 whole entry): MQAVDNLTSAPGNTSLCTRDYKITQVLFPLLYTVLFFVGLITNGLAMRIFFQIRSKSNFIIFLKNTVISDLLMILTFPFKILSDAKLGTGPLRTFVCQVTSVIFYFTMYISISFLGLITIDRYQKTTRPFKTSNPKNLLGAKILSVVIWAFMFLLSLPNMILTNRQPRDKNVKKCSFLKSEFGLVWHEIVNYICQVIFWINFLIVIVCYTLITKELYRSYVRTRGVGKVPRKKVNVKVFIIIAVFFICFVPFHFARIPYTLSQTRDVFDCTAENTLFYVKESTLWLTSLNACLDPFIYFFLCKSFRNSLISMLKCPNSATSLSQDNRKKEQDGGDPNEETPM

Compound `CCOC(=O)N1CCN(C(=O)[C@H](Cc2cnc[nH]2)NC(=O)c2cc(OC)c3ccccc3n2)CC1` has an IC50 [1] of 1500 nM.
For `CCOC(=O)N1CCN(C(=O)[C@H](CCCCN)NC(=O)c2cc(OC)c3ccccc3n2)CC1`, the IC50 [1] was 26000 nM.
Compound `CCOC(=O)N1CCN(C(=O)CNC(=O)c2cc(OC)c3ccccc3n2)[C@H](C)C1` has an IC50 [1] of 4500 nM.
For `CCOC(=O)N1CCN(C(=O)CN(C)C(=O)c2cc(OC)c3ccccc3n2)CC1`, the IC50 [1] was 21000 nM.
In the case of `CCCCCC(=O)N1CCN(C(=O)CNC(=O)c2cc(OC)c3ccccc3n2)CC1`, the IC50 [1] is reported as 1200 nM.
In the case of `CCOC(=O)N1CCN(C(=O)[C@H](CCC(N)=O)NC(=O)c2cc(OC)c3ccccc3n2)CC1`, the IC50 [1] is reported as 2500 nM.
`CCOC(=O)N1CCN(C(=O)CNC(=O)C=C2c3ccccc3-c3ccccc32)CC1` gave an IC50 [1] of 860 nM and a Cmax [2] of 2700 nM.
Work on `CCOC(=O)N1CCN(C(=O)CNC(=O)c2ccc3ccccc3c2)CC1` yielded an IC50 [1] of 1800 nM and a Cmax [2] of 1500 nM.
Work on `CCOC(=O)N1CCN(C(=O)[C@@H](CC(=O)O)NC(=O)c2cc(OC)c3ccccc3n2)CC1` yielded an IC50 [1] of 18000 nM.
With `CCCOc1cc(C(=O)NCC(=O)N2CCN(C(=O)OCC)CC2)nc2ccccc12` the IC50 [1] was 520 nM.
For `CCOC(=O)N1CCN(C(=O)CNC(=O)c2cc(OC)c3ccccc3n2)C[C@@H]1C`, the IC50 [1] was 1700 nM.
Work on `CCOC(=O)N1CCN(C(=O)[C@H](CCC(=O)O)NC(=O)c2cc(OC)c3ccccc3n2)CC1` yielded a concentration at 1 h [3] of 120 nM, an IC50 [1] of 86 nM and a Cmax [2] of 120 nM. It also gave a Kb [4] of 94 nM, a remaining at 3 µM [5] greater than 90% and a remaining at 3 µM [6] greater than 90%. For the same compound, the remaining at 3 µM [7] was greater than 90%, the concentration at 3 h [8] was 100 nM and the concentration at 1 h [9] was 340 nM. For the same compound, the concentration at 3 h [10] was 340 nM, the half-life [11] was 1.2 h and the Papp [12] was 0.166 ×10⁻⁶ cm/s.
`CCOC(=O)N1CCN(C(=O)CNC(=O)c2cc(OC)c3ccccc3n2)[C@@H](C)C1` gave an IC50 [1] of 1100 nM.
With `CCOC(=O)N1CCN(C(=O)[C@@H](NC(=O)c2cc(OC)c3ccccc3n2)C(C)C)CC1` the IC50 [1] was 1500 nM.
In the case of `CCOC(=O)N1CCN(C(=O)[C@H](Cc2c[nH]c3ccccc23)NC(=O)c2cc(OC)c3ccccc3n2)CC1`, the IC50 [1] is reported as 7900 nM.
`CCOC(=O)N1CCN(C(=O)CNC(=O)c2cc(O)c3ccccc3n2)CC1` showed an IC50 [1] greater than 2000 nM.
In the case of `CCOC(=O)N1CCN(C(=O)[C@H](COCC(=O)O)NC(=O)c2cc(OC)c3ccccc3n2)CC1`, the IC50 [1] is reported as 200 nM.
In the case of `CCOC(=O)N1CCN(C(=O)[C@H](CC(N)=O)NC(=O)c2cc(OC)c3ccccc3n2)CC1`, the IC50 [1] is reported as 2100 nM.
With `CCOC(=O)N1CCN(C(=O)[C@H](CCCC(=O)O)NC(=O)c2cc(OC)c3ccccc3n2)CC1` the IC50 [1] was 270 nM.
`CCOC(=O)N1CCN(C(=O)[C@H](CO)NC(=O)c2cc(OC)c3ccccc3n2)CC1` gave an IC50 [1] of 1100 nM.
With `CCOC(=O)N1CCN(C(=O)[C@@H](CCC(=O)O)NC(=O)c2cc(OC)c3ccccc3n2)CC1` the IC50 [1] was 22000 nM.
In the case of `CCOC(=O)N1CCN(C(=O)CNC(=O)c2cc(OCc3ccccc3)c3ccccc3n2)CC1`, the IC50 [1] is reported as greater than 3000 nM.
In the case of `CCOC(=O)N1CCN(C(=O)[C@H](CC(=O)O)NC(=O)c2cc(OC)c3ccccc3n2)CC1`, the concentration at 1 h [3] is reported as 270 nM, the IC50 [1] is reported as 150 nM and the concentration at 3 h [8] is reported as 200 nM. The concentration at 1 h [9] was 410 nM and the concentration at 3 h [10] was 380 nM.
In the case of `CCOC(=O)N1CCN(C(=O)[C@H](C)NC(=O)c2cc(OC)c3ccccc3n2)CC1`, the IC50 [1] is reported as 1900 nM.
In the case of `CCOC(=O)N1CCN(C(=O)[C@@H](C)NC(=O)c2cc(OC)c3ccccc3n2)CC1`, the IC50 [1] is reported as 14000 nM.
With `CCOC(=O)N1CCN(C(=O)[C@H](Cc2ccccc2)NC(=O)c2cc(OC)c3ccccc3n2)CC1` the IC50 [1] was 8600 nM.
Work on `COc1cc(C(=O)NCC(=O)N2CCN(C(=O)NC(C)(C)C)CC2)nc2ccccc12` yielded an IC50 [1] of 910 nM.
With `CCOC(=O)N1CCN(C(=O)[C@H](CC(=O)NCC(=O)O)NC(=O)c2cc(OC)c3ccccc3n2)CC1` the IC50 [1] was 1100 nM.
`COC(=O)N1CCN(C(=O)CNC(=O)c2cc(OC)c3ccccc3n2)CC1` showed an IC50 [1] greater than 3000 nM.
In the case of `CCOC(=O)N1CCN(C(=O)CNC(=O)c2cc(OC)c3ccccc3n2)CC1`, the IC50 [1] is reported as 690 nM, the Cmax [2] is reported as 1200 nM and the bioavailability [13] is reported as 42%.
With `CCOC(=O)N1CCN(C(=O)CNC(=O)c2cc(OCC)c3ccccc3n2)CC1` the IC50 [1] was 840 nM.
`CCc1ccc(C(=O)N2CCN(C(=O)CNC(=O)c3cc(OC)c4ccccc4n3)CC2)cc1` gave an IC50 [1] of 1800 nM.
`COc1cc(C(=O)NCC(=O)N2CCN(c3cccc(C)c3)CC2)nc2ccccc12` gave an IC50 [1] of 890 nM.
Work on `CCOC(=O)N1CCN(C(=O)CNC(=O)c2cc(OC)c3ccccc3n2)C[C@H]1C` yielded an IC50 [1] of 4300 nM.
In the case of `CCOC(=O)N1CCN(C(=O)[C@@H](CSCC(=O)O)NC(=O)c2cc(OC)c3ccccc3n2)CC1`, the IC50 [1] is reported as 190 nM.
